Laboratory results from patent US10265383B2, “Treatment of radiation injury using ghrelin” (priority 2014, dated 2019).
Where no end group is shown, it is not given here. The star is where a group is joined. Octanoyl = CCCCCCCC(=O)*

Assays:
[1] = tested on: rats exposed to 10 Gy WBI; test: Survival study after whole body irradiation (WBI); format: in vivo, rat; conditions: 10 Gy WBI rats, 30 day observation, vehicle 30%
Experimental: Experimental animals. Male Sprague-Dawley (SD) rats (250-350 g) purchased from Charles River Laboratories (Wilmington, Mass., USA) were used. The rats were housed in a temperature-controlled room on a 12-h light/dark cycle and fed on a standard Purina rat chow diet. Animal experimentation was carried out in accordance with the Guide for the Care and Use of Laboratory Animals. This project was approved by the Institutional Animal Care and Use Committee (IACUC) of the Feinstein Institute for Medical Research.
Animal model of whole body irradiation. […]
Survival study. To assess the survival benefits of human ghrelin, animals were exposed to 10 Gy WBI and treated with human ghrelin (20 nmol/rat) subcutaneously once a day, with the first dose given either at 24 h or 48 h after WBI, for 6 days and observed for 30 days, and the survival recorded. […] Rats in the survival study were monitored twice daily and weighed once a day during the 30 day survival period. Net weight change was calculated as: % Weight Change ((weight at each day−weight at day 0)/weight at day 0)×100.
Statistical analysis. All data are expressed as mean±SE and analyzed by one way analysis of variance (ANOVA) and compared using Student Newman Keul's test for multiple comparisons. […]

[2] = tested on: serum endotoxin; test: Serum endotoxin levels (LAL assay); format: in vivo; conditions: Day 7 after 10 Gy WBI; 20 nmol/rat for 6 days from 24 h
Experimental: (§1) Animal model of whole body irradiation. Rats were exposed to whole body irradiation (WBI) of 10 Gray (Gy) using a Gammacell® 1000 Irradiator (Atomic Energy of Canada Ltd) [radiation source: Cesium-137 (^137Cs)] delivered at a dose rate of about 2.5 GY/min. The animals were sedated with intra-peritoneal pentobarbital (40 mg/kg BW) prior to irradiation. During radiation, the container rotated continuously in front of the radiation source for even exposure. The animals were then returned to their cages, and food and water were provided.
Blood and Tissue Collection after WBI. Rats exposed to 10 Gy WBI were treated with 20 nmol/rat human ghrelin once a day for 6 days starting at 24 h after radiation. At the 7th day, rats were euthanized, and blood, liver and the small intestine were removed under sterile conditions. The blood was allowed to clot and following centrifugation, the serum was transferred into pyrogenic free sterile tubes, and stored at −80° C. until further analysis. […]
Serum endotoxin levels. Bacterial endotoxin levels in the serum were determined by the endpoint Chromogenic Limulus Amebocyte Lysate (LAL) assay (QC-1000, Lonza, Walkervilles, Md. USA) and expressed in EU/ml. Samples were analyzed according to manufacturer's instruction. Endotoxin levels which are ≥0.1EU/ml can be measured using this assay.

[3] = tested on: Bcl-xl; test: Western blot of jejunal Bcl-xl protein; format: in vivo, rat; conditions: jejunum, Day 7 after 10 Gy WBI
Experimental: as §1
(§2) Blood and Tissue Collection after WBI. Rats exposed to 10 Gy WBI were treated with 20 nmol/rat human ghrelin once a day for 6 days starting at 24 h after radiation. At the 7th day, rats were euthanized, and blood, liver and the small intestine were removed under sterile conditions. […]
(§3) Western blot analysis. […] After overnight incubation with the primary antibodies at 4° C., the membranes were washed with TBS-T Immunoreactive bands were detected using HRP-linked secondary antibody (Southern Biotech, Birmingham, Ala.) and the Enhanced Chemiluminescence (ECL) Western blot detection kit (Amersham, Piscataway, N.J.). The immunoblots were exposed to X-ray film and analyzed with the NIH Image J analysis system. […]

[4] = tested on: Bax; test: Western blot of jejunal Bax protein; format: in vivo, rat; conditions: jejunum, Day 7 after 10 Gy WBI; slightly elevated in vehicle
Experimental: as §1, §2, §3

[5] = tested on: ICAM-1; test: Jejunal ICAM-1 mRNA expression by real time PCR; format: in vivo, rat; conditions: jejunum, Day 7 after 10 Gy WBI; vehicle increased by 69%
Experimental: as §1
Blood and Tissue Collection after WBI. Rats exposed to 10 Gy WBI were treated with 20 nmol/rat human ghrelin once a day for 6 days starting at 24 h after radiation. At the 7th day, rats were euthanized, and blood, liver and the small intestine were removed under sterile conditions. The blood was allowed to clot and following centrifugation, the serum was transferred into pyrogenic free sterile tubes, and stored at −80° C. until further analysis. Liver (0.25 g) was snap-frozen in liquid nitrogen and stored at −80° C. for subsequent bacterial translocation analysis. Small intestine, 10-15 cm of the ileum, was harvested for gut permeability studies, 10 cm of jejunum was collected for histopathology, and the remaining 10 cm jejunal segment each was collected for RNA and protein analyses.
Total RNA extraction and real time PCR. […]

“ghrelin (GSS(Octanoyl)FLSPEHQRVQQRKESKKPPAKLQPR; listed as Homo sapiens) [human ghrelin]” was tested, and the survival rate ([1]; 20 nmol/rat s.c. once a day for 6 days starting at 24 h after WBI) was 63%, the survival rate ([1]; 20 nmol/rat s.c. once a day for 6 days, treatment initiated at 48 h after WBI) was 61% and the “serum endotoxin levels, decrease” value [2] was 42%. The “Bcl-xl protein levels, restored by” value ([3]; vehicle 34% reduction) was 75%, the “Bcl-xl/Bax ratio, increase from the vehicle” value ([3]; vehicle 54% reduction) was 55% and the Bax protein [4] was “remain same as sham”. The “ICAM-1 mRNA expression, inhibition from the vehicle levels” value [5] was 51%.
